# Reference: patent US9227971B2, “Pyrazolo[1,5-a]pyrimidine compounds as mTOR inhibitors” (Merck Sharp & Dohme Corp., priority 2010, dated 2016)
# Read-outs that look alike come from different tables or passages of the source.
# Tests used:
# [1] = test system: phosphorylated 4E-BP1 Thr37/46 (p4E-BP1 Thr37/46), mTORC1 activity, PC3 cells; assay: mTOR target engagement assay, immunofluorescent cell-based, p4E-BP1 Thr37/46 readout (mTORC1 activity); conditions: Homo sapiens, read-out: p4E-BP1 Thr37/46 IC50
# Experimental: (§1) The target engagement of mTOR kinase inhibitors was evaluated using an immunofluorescent cell-based assay. In this assay, inhibition of mTORC1 activity was measured by the reduction in the level of phosphorylated 4E-BP1^[…] (p4E-BP1 Thr37/46), and inhibition of mTORC2 activity was measured by the reduction of phosphorylated AKT^Ser473 (pAKT S473).
# (§2) PC3 cells (prostate tumor cell-line that contains a mutation in the tumor suppressor PTEN, that promotes the phosphorylation and activation of AKT and 4E-BP1) were used in the immunofluorescence assay. PC3 cells were seeded on 384 well plates (black clear bottom, Matrix #4332) overnight. PC3 cells were then treated with 40 μl of the serially diluted test compounds (in 5% fetal bovine serum, F12 medium containing 0.25% DMSO) for ninety minutes at 37° C. The test compound solution was removed, and the plates were washed gently two times with 25 μl phosphate buffered saline (PBS). The cells were fixed by adding 25 μl of Prefer reagent (from Anatech LTD, Cat#414, a glyoxal fixative for fixing proteins within a cell) for sixty minutes followed by three washes with PBS. 5% Goat serum in PBS/0.3% Triton was used to block non-specific binding (60 minutes).
# The primary antibodies targeting pAKT S473 and p4E-BP1 Thr37/46 were diluted into PBS/0.3% Triton and incubated with the cells overnight at 4° C. The antibodies targeting pAKTS473 (Cat#4085, Cell signaling) and p4E-BP1 Thr37/46 (Cat#2855, Cell signaling) were used at a 1:100 dilution. Plates were washed three times with PBS/0.1% Tween 20 before adding the secondary antibody at a 1:200 dilution. (goat anti-rabbit containing a fluorescent label, Alexa Fluor 488, Cat#A11008, Invitrogen) in PBS/0.3% Triton for 60 minutes.
# Finally, the plates were washed three times with PBS/0.1% Tween 20 and the fluorescent intensity was read using an Analyst HT from Molecular Devices. The fluorescent intensity values from the serially diluted compound treatment group were analyzed using the Xlfit 4 program ([…]) (Formula 205: Y=Bottom+(Top-Bottom)/(1+(IC50/X)^Hillslope) to generate the IC50 value. Where Top is the maximum signal without Compound (+DMSO only) and Bottom represents maximum inhibition. Y is the fluorescence at some compound concentration. The control used to determine the fluorescent intensities for 100% pAKT S473 or 100% phosphorylated p4E-BP1 Thr37/46 were measured from untreated wells that contained only DMSO, instead of test compound.
# [2] = test system: phosphorylated AKT Ser473 (pAKT S473), mTORC2 activity, PC3 cells; assay: mTOR target engagement assay, immunofluorescent cell-based, pAKT S473 readout (mTORC2 activity); conditions: Homo sapiens
# Experimental: as §1
# as §2, with “PC3 cells were seeded on 384 well plates (black clear bottom, Matrix #4332) overnight.” left out, “The cells were fixed by adding 25 μl of Prefer reagent (from Anatech LTD, Cat#414, a glyoxal fixative for fixing proteins within a cell) for sixty minutes followed by three washes with PBS.” left out
# The primary antibodies targeting pAKT S473 and p4E-BP1 Thr37/46 were diluted into PBS/0.3% Triton and incubated with the cells overnight at 4° C. […] Plates were washed three times with PBS/0.1% Tween 20 before adding the secondary antibody at a 1:200 dilution.
# Finally, the plates were washed three times with PBS/0.1% Tween 20 and the fluorescent intensity was read using an Analyst HT from Molecular Devices.
# [3] = PC-3, PC3 cells, compound treatment ninety minutes at 37° C.
Structure (SMILES),"IC50 [1, 3] [nM]","IC50 ([1]; PC-3, Table 3-1, PC3 cells) [nM]","IC50 ([2]; PC-3, Table 3-1, PC3 cells) [nM]",further results
"COC(=O)N1[C@@H]2CC[C@H]1C[C@H](c1nc3c(-c4ccc(-c5ncc[nH]5)nc4)cnn3c(N)c1C(C)=O)C2 [Compound 6.25, (1R,3s,5S)-methyl 3-(3-(6-(1H-imidazol-2-yl)pyridin-3-yl)-6-acetyl-7-aminopyrazolo[1,5-a]pyrimidin-5-yl)-8-azabicyclo[3.2.1]octane-8-carboxylate]",,,,"IC50 ([1]; PC-3, Table 6-1, PC3 cells): 1 to 100 nM; IC50 ([2]; PC-3, Table 6-1, PC3 cells): 1 to 100 nM"
"CC(=O)c1c([C@@H]2C[C@H]3CC[C@@H](C2)N3C(=O)c2nnc[nH]2)nc2c(-c3ccc(-c4ccccn4)nc3)cnn2c1N [Compound 1.1.146, 1-(3-(2,2′-bipyridin-5-yl)-5-((1R,3s,5S)-8-(4H-1,2,4-triazole-3-carbonyl)-8-azabicyclo[3.2.1]octan-3-yl)-7-aminopyrazolo[1,5-a]pyrimidin-6-yl)ethanone]",1 to 100,,,"IC50 [2, 3]: 1 to 100 nM"
"Nc1c(C2CC2)c([C@@H]2C[C@H]3CC[C@@H](C2)N3S(=O)(=O)c2nnc[nH]2)nc2c(-c3ccc(-c4ccccc4)nc3)cnn12 [Compound 4.3, 5-((1R,3a,5S)-8-(4H-1,2,4-triazol-3-ylsulfonyl)-8-azabicyclo[3.2.1]octan-3-yl)-6-cyclopropyl-3-(6-phenylpyridin-3-yl)pyrazolo[1,5-a]pyrimidin-7-amine]",1000 to 10000,,,"IC50 [2, 3]: 1000 to 10000 nM"
"COc1ccc(-c2ccc(-c3cnn4c(N)c(S(C)(=O)=O)c([C@@H]5C[C@H]6CC[C@@H](C5)N6C(=O)c5nnc[nH]5)nc34)cn2)c(F)c1F [Compound 3.54, ((1R,3s,5S)-3-(7-amino-3-(6-(2,3-difluoro-4-methoxyphenyl)pyridin-3-yl)-6-(methylsulfonyl)pyrazolo[1,5-a]pyrimidin-5-yl)-8-azabicyclo[3.2.1]octan-8-yl)(4H-1,2,4-triazol-3-yl)methanone]",,1 to 100,1 to 100,
"CS(=O)(=O)c1c([C@@H]2C[C@H]3CC[C@@H](C2)N3C(=O)c2ccnc(N)n2)nc2c(-c3ccc(-c4ccccc4)nc3)cnn2c1N [Compound 3.143, ((1R,3s,5S)-3-(7-amino-6-(methylsulfonyl)-3-(6-phenylpyridin-3-yl)pyrazolo[1,5-a]pyrimidin-5-yl)-8-azabicyclo[3.2.1]octan-8-yl)(2-aminopyrimidin-4-yl)methanone]",,100 to 1000,100 to 1000,
"Cc1[nH]nc(-c2ccc(-c3cnn4c(N)c(C5CC5)c([C@@H]5C[C@H]6CC[C@@H](C5)N6C(=O)CO)nc34)cn2)c1F [Compound 4.20, 1-((1R,3s,5S)-3-(7-amino-6-cyclopropyl-3-(6-(4-fluoro-5-methyl-1H-pyrazol-3-yl)pyridin-3-yl)pyrazolo[1,5-a]pyrimidin-5-yl)-8-azabicyclo[3.2.1]octan-8-yl)-2-hydroxyethanone]",100 to 1000,,,"IC50 [2, 3]: 100 to 1000 nM"
"CS(=O)(=O)c1c([C@H]2CC3CC[C@H](C2)N3C(=O)c2cn[nH]n2)nc2c(-c3cnc4ccc(F)cc4c3)cnn2c1N [Compound 3.177, ((1R,3s,5S)-3-(7-amino-3-(6-fluoroquinolin-3-yl)-6-(methylsulfonyl)pyrazolo[1,5-a]pyrimidin-5-yl)-8-azabicyclo[3.2.1]octan-8-yl)(2H-1,2,3-triazol-4-yl)methanone]",,100 to 1000,100 to 1000,
"Cc1nc(N)ncc1C(=O)N1[C@@H]2CC[C@H]1C[C@H](c1nc3c(-c4ccc(-c5ccccc5)nc4)cnn3c(N)c1S(C)(=O)=O)C2 [Compound 3.137, (2-amino-4-methylpyrimidin-5-yl)((1R,3a,5S)-3-(7-amino-6-(methylsulfonyl)-3-(6-phenylpyridin-3-yl)pyrazolo[1,5-a]pyrimidin-5-yl)-8-azabicyclo[3.2.1]octan-8-yl)methanone]",,1000 to 10000,1000 to 10000,
"CS(=O)(=O)c1c([C@@H]2C[C@H]3CC[C@@H](C2)N3C(=O)c2nnc[nH]2)nc2c(-c3ccc(OC4CCC4)nc3)cnn2c1N [Compound 8.53, ((1R,3s,5S)-3-(7-amino-3-(6-cyclobutoxypyridin-3-yl)-6-(methylsulfonyl)pyrazolo[1,5-a]pyrimidin-5-yl)-8-azabicyclo[3.2.1]octan-8-yl)(4H-1,2,4-triazol-3-yl)methanone]",,,,"IC50 ([1]; PC-3, PC3 cells): 1000 to 10000 nM; IC50 ([2]; PC-3, PC3 cells): 1000 to 10000 nM"
"CC(=O)c1c([C@@H]2C[C@H]3CC(O)[C@@H](C2)N3C(=O)c2nc[nH]n2)nc2c(-c3ccc(-c4ccccc4)nc3)cnn2c1N (stereo partly drawn) [Compound 8.34, 1-(7-amino-5-((1S,3R,5R)-6-hydroxy-8-(1H-1,2,4-triazole-3-carbonyl)-8-azabicyclo[3.2.1]octan-3-yl)-3-(6-phenylpyridin-3-yl)pyrazolo[1,5-a]pyrimidin-6-yl)ethanone]",,,,"IC50 ([1]; PC-3, PC3 cells): 1 to 100 nM; IC50 ([2]; PC-3, PC3 cells): 1 to 100 nM"
"CS(=O)(=O)c1c([C@@H]2C[C@H]3CC[C@@H](C2)N3C(=O)c2nnc[nH]2)nc2c(-c3ccc(-c4ccccn4)nc3)cnn2c1N [Compound 3.102, ((1R,3s,5S)-3-(3-(2,2′-bipyridin-5-yl)-7-amino-6-(methylsulfonyl)pyrazolo[1,5-a]pyrimidin-5-yl)-8-azabicyclo[3.2.1]octan-8-yl)(4H-1,2,4-triazol-3-yl)methanone]",,1 to 100,1 to 100,
"CC(=O)c1c(C2CC3COCC(C2)N3C(=O)CO)nc2c(-c3ccc(-c4ccccc4)nc3)cnn2c1N (stereo not drawn) [Compound 8.28, 1-(7-(6-acetyl-7-amino-3-(6-phenylpyridin-3-yl)pyrazolo[1,5-a]pyrimidin-5-yl)-3-oxa-9-azabicyclo[3.3.1]nonan-9-yl)-2-hydroxyethanone]",,,,"IC50 ([1]; PC-3, PC3 cells): 100 to 1000 nM; IC50 ([2]; PC-3, PC3 cells): 100 to 1000 nM"
"Cc1nc(-c2ccc(-c3cnn4c(N)c(C5CC5)c([C@@H]5C[C@H]6CC[C@@H](C5)N6C(=O)CO)nc34)cn2)[nH]c1C [Compound 6.32, 1-((1R,3s,5S)-3-(7-amino-6-cyclopropyl-3-(6-(4,5-dimethyl-1H-imidazol-2-yl)pyridin-3-yl)pyrazolo[1,5-a]pyrimidin-5-yl)-8-azabicyclo[3.2.1]octan-8-yl)-2-hydroxyethanone]",,,,"IC50 ([1]; PC-3, Table 6-1, PC3 cells): 100 to 1000 nM; IC50 ([2]; PC-3, Table 6-1, PC3 cells): 1 to 100 nM"
"N#Cc1c([C@@H]2C[C@H]3CC[C@@H](C2)N3C(=O)CO)nc2c(-c3ccc(-c4ccccc4)nc3)cnn2c1N [Compound 5.1, 7-amino-5-((1R,3s,5S)-8-(2-hydroxyacetyl)-8-azabicyclo[3.2.1]octan-3-yl)-3-(6-phenylpyridin-3-yl)pyrazolo[1,5-a]pyrimidine-6-carbonitrile]",100 to 1000,,,"IC50 [2, 3]: 1 to 100 nM"
"COc1cc(-c2ccc(-c3cnn4c(N)c(C5CC5)c([C@@H]5C[C@H]6CC[C@@H](C5)N6C(=O)c5nnc[nH]5)nc34)cn2)ccc1F [Compound 4.11, ((1R,3a,5S)-3-(7-amino-6-cyclopropyl-3-(6-(4-fluoro-3-methoxyphenyl)pyridin-3-yl)pyrazolo[1,5-a]pyrimidin-5-yl)-8-azabicyclo[3.2.1]octan-8-yl)(4H-1,2,4-triazol-3-yl)methanone]",> 10000,,,
"Nc1cc([C@@H]2C[C@H]3CC[C@@H](C2)N3C(=O)c2nnc[nH]2)nc2c(-c3ccc(C4(O)CCC4)nc3)cnn12 [Compound 7.44, ((1R,3s,5S)-3-(7-amino-3-(6-(1-hydroxycyclobutyl)pyridin-3-yl)pyrazolo[1,5-a]pyrimidin-5-yl)-8-azabicyclo[3.2.1]octan-8-yl)(4H-1,2,4-triazol-3-yl)methanone]",,,,"IC50 ([1]; PC-3, Table 7-8, PC3 cells): 1000 to 10000 nM"
